Results published in US9540412B2, “Methods of preparing targeted aptamer prodrugs” (Albert Einstein College of Medicine, Inc., priority 2010, dated 2017).
Like-named read-outs stand apart in the source and are kept apart here.

T1: human protein tyrosine kinase-7 (Homo sapiens, UniProt Q13308)
T1 construct: This protein is overexpressed on a variety of leukemia cell lines; endogenous in cells; host or cells: 'target cells'
T1 sequence (Q13308 31-1070): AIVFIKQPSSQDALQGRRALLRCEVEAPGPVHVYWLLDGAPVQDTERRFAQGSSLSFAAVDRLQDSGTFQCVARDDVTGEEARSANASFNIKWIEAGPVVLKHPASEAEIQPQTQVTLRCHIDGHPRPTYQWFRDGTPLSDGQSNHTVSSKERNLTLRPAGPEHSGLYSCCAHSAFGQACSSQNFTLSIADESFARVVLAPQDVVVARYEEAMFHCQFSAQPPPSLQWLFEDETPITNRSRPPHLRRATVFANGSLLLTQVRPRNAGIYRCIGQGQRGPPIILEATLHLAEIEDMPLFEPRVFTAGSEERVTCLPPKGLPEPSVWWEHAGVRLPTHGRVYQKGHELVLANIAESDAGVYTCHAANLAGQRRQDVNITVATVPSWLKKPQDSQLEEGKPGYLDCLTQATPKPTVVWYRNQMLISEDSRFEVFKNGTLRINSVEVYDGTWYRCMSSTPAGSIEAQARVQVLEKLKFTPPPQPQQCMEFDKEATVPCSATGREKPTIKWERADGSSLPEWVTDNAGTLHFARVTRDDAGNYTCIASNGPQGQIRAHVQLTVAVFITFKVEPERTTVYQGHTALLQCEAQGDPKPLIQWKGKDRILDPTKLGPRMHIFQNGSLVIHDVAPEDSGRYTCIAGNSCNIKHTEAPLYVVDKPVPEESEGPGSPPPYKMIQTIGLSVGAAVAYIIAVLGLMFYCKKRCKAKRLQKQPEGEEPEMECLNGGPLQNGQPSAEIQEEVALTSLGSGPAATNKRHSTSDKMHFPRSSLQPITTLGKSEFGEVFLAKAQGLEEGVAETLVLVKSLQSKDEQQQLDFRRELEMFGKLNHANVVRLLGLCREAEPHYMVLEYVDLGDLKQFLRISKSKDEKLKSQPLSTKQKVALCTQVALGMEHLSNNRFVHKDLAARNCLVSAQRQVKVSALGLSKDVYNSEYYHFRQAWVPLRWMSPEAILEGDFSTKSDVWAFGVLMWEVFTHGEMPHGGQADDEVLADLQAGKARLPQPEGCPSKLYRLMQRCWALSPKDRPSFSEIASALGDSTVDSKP


Assays:
HeLa cells = assay: HeLa cell viability (alamarBlue) after aptamer-prodrug treatment; format: cell-based, human; settings: 50 nM aptamer, 4 days, serum free media (DMEM containing 1% Nutridoma), FIG. 3
Text: To test the feasibility of this strategy for delivery of nucleoside analog drugs, two different anti-hTfR aptamers (designated min8 and min9.1) were extended with a 24 nucleotide extension. A complementary DNA oligonucleotide (FdC-oligo) was then synthesized to this region in which all cytosine residues had been replaced with the nucleoside analog 5F-deoxycytidine (FdC), a potent inhibitor of methyltransferase activity (Beumer et al. 2008). The aptamer-produgs were then assembled by mixing the drug oligo at a 1:1 molar ratio with one of two different minized anti-hTfR aptamers, min8, min9.1, or a non-targeting control aptamer (cntrl) in PBS and thermally equilibrated by heating at 70° C. Aptamer function following hybridization was confirmed by FACS using a FITC labeled version of the oligonucleotide.
The ability of the assembled anti-hTfR aptamer-prodrugs to deliver therapeutic cargo to cells was tested on HeLa cells. To avoid potential complications from degradation of the FdC-oligo (which is DNA and thus readily susceptible to degradation), these assays were performed in serum free media (DMEM containing 1% Nutridoma). Cells were incubated with increasing concentrations of either free drug, anti-hTfR aptamer-prodrugs or controls for 4 days, after which cell viability was assayed using the chromogenic substrate alamarBlue. […]

Min6B1 cells [1] = assay: Flow cytometry cell labeling of Min6B1 cells; format: cell-based, mouse; settings: streptavidin phycoerytherin
LNCaP cells = settings: unconjugated toxin; read-out: IC50 (toxicity); cited from earlier work
[2] = target: T1, human protein tyrosine kinase-7; assay: Binding of fluorescently labeled scgc8 aptamer prodrugs to target cells (FIG. 4A); settings: fluorescently labeled aptamers
Text: (§1) In addition to adding drugs to aptamers by hybridization, a series of aptamer-prodrugs has been synthesized using a DNA aptamer (scgc8) which targets human protein tyrosine kinase-7. […] To stabilize these aptamers against serum nucleases, the oligonucleotides were generated bearing a 3′ inverted thymidine residue which dramatically stabilizes the serum half-life of DNA molecules to ˜20 hrs (Dass et al. 2002).
A ssDNA aptamer that targets protein kinase 7 was selected by Shanggun et al (J Proteome Res, 2008 7:2133). The aptamer, scgc.8, was adapted for the delivery of floxuridine (5FdU) by site specific incorporation this nucleoside analog drug during chemical synthesis. Aptamer prodrugs were synthesized bearing a 5′ fluorescein molecule and a 3′ inverted thymiding residue to enhance serum stability. The sequence of the parental aptamer and the aptamer prodrugs are: Scgc.8 […] (SEQ ID NO:8); Scgc.8-5 AU*CU*AACU*[…]*U*AGA (SEQ ID NO:9); Scgc.8-9 AU*CU*AACU*GCU*GCGCCGCCGGGAAAAU*ACU*GU*ACGGU*U*AGA (SEQ ID NO:10). U* denotes 5FdU.

Jurkat cells = assay: Jurkat cell growth inhibition / toxicity (FIG. 4B); format: cell-based, human; settings: 500 nM, regular media (RPMI+10% FBS), 3' inverted thymidine
Text: as §1

Min6B1 cells [3] = assay: Internalization into Min6B1 cells (fluorescence microscopy); format: cell-based, mouse
Experimental: Aptamers that target and are internalized by beta cells were identified by performing an internalization selection against the glucose-responsive immortalized mouse beta cell line Min6B1. As in the selection against the transferrin receptor described above, in order to drive the selection towards molecules that are internalized, following incubation with the RNA library, target cells were washed extensively and treated with trypsin and ribonuclease to remove any surface bound RNA. Following recovery of total RNA, aptamers were amplified, transcribed and the process was repeated.
When similar experiments were conducted with the unselected library, little or no fluorescent signal was observed.

[4] = tested on: mouse (fibroblasts, brain endothelial, skeletal and myocardial muscles) and human (cervical and prostate cancer) cell lines; assay: Specificity studies on additional mouse and human cell lines; format: cell-based

| Molecule | cell labeling (Min6B1 cells [1]) | binding to target cells [2] | inhibition of cell growth / toxicity (Jurkat cells) | further results |
| --- | --- | --- | --- | --- |
| Nc1nc(=O)n([C@H]2C[C@H](O)[C@@H](CO)O2)cc1F [free drug, 5F-deoxycytidine] | – | – | – | cell viability (HeLa cells): loss of cell viability |
| C1.min: minimized core of C1, SEQ ID NO:12 (UGCGAAUCCUCUAUCCGUUCUAAACGCUUUAUGAUUUCGCA; listed as RNA, chemistry not given here) | labeled cells as efficiently as the full length clone | – | – | – |
| gelonin | – | – | – | IC50 (LNCaP cells): ~5 µM |
| scgc8-5: scgc8 with 5 of 9 thymidine residues replaced with floxuridine, SEQ ID NO:9 (AUCUAACUGCTGCGCCGCCGGGAAAATACTGTACGGUUAGA; floxuridine substitutions, chemistry not fully specified) | – | still bound target cells better than a scrambled control sequence (cntrl-9) but less efficiently than the non-drug containing aptamer (scgc8) | considerable lower levels of toxicity | – |
| scgc8-9: scgc8 with all 9 thymidine residues replaced with floxuridine, SEQ ID NO:10 (AUCUAACUGCTGCGCCGCCGGGAAAATACTGTACGGUUAGA; all 9 thymidines replaced with floxuridine, chemistry not fully specified) | – | still bound target cells better than a scrambled control sequence (cntrl-9) but less efficiently than the non-drug containing aptamer (scgc8) | inhibited cell growth as efficiently as free drug alone | – |
| C1: 2′F modified internalizing RNA selected against Min6B1 cells, SEQ ID NO:11 (nucleic acid, 2'-fluoro modified RNA library, positions of 2'-F not given here) GGGAGGUGAAUGGUUCUACGAUAUUGCGAAUCCUCUAUCCGUUCUAAACGCUUUAUGAUUUCGCAUAGUCCUUACAUGCGAGAUGACCACCGUAAUUGAAUUAAAUGCCCGCCAUGACCAG | significant cell labeling | – | – | internalization (Min6B1 cells [3]): not only binds to, but is also internalized by this cell type; internalization (Min6B1 cells [3]; listed as dominant clone): readily internalized by Min6B1 cells; cell specificity of targeting / internalization [4]: targets several unrelated cell lines across different species; cell specificity of targeting / internalization ([4]; listed as dominant clone): not specific for beta cells |
